The results in this text go back to ChEMBL document CHEMBL5576154, “Targeted suppression of oral squamous cell carcinoma by pyrimidine-tethered quinoxaline derivatives” (RSC Med Chem, 2024).

The term EC50 denotes the concentration needed to bring the measured effect to its halfway point. Broadly, the IC50 is the midpoint of a concentration-inhibition curve. Higher therefore signals weaker potency in that assay.

One data set deals with Pyruvate kinase PKM (Homo sapiens, UniProt P14618). In words: Activation of PKM2 (unknown origin) by LDH enzyme coupled assay.
A short description of data set [1]: Antiproliferative activity against OSCC (unknown origin). The data set is classed as functional, cell-based. The settings on record: Oral cancer cell.
Data set [2] deals with CAL-27. In words: Cytotoxicity against human CAL-27 cells incubated for 24 hrs by Alamar blue assay. The conditions noted are these: CAL-27, 24 h. Background: Resazurin is reduced to fluorescent resorufin, in cell work by metabolically active cells.
Data set [3] is described as follows: Cytotoxicity against normal epithelial cells (unknown origin) incubated for 24 hrs by Alamar blue assay. In kind it is toxicity, cell-based, Epithelial cell.
Data set [4] concerns CAL-27. The data set can be described thus: Induction of apoptosis in human CAL-27 cells assessed as viable cells at IC50 concentration incubated for 24 hrs by Annexin V-FITC/PI staining based flow cytometry analysis (reference value: 97.36%). In kind it is functional.
Data set [5] has as its target Vascular endothelial growth factor receptor 2 (Homo sapiens, UniProt P35968). The data set can be described thus: Inhibition of human VEGFR2 by ELISA. Background: An ELISA detects its analyte on a solid surface through an enzyme-linked reagent.

SMILES strings stand for the structures.

Chain of Vascular endothelial growth factor receptor 2 (P35968 whole entry): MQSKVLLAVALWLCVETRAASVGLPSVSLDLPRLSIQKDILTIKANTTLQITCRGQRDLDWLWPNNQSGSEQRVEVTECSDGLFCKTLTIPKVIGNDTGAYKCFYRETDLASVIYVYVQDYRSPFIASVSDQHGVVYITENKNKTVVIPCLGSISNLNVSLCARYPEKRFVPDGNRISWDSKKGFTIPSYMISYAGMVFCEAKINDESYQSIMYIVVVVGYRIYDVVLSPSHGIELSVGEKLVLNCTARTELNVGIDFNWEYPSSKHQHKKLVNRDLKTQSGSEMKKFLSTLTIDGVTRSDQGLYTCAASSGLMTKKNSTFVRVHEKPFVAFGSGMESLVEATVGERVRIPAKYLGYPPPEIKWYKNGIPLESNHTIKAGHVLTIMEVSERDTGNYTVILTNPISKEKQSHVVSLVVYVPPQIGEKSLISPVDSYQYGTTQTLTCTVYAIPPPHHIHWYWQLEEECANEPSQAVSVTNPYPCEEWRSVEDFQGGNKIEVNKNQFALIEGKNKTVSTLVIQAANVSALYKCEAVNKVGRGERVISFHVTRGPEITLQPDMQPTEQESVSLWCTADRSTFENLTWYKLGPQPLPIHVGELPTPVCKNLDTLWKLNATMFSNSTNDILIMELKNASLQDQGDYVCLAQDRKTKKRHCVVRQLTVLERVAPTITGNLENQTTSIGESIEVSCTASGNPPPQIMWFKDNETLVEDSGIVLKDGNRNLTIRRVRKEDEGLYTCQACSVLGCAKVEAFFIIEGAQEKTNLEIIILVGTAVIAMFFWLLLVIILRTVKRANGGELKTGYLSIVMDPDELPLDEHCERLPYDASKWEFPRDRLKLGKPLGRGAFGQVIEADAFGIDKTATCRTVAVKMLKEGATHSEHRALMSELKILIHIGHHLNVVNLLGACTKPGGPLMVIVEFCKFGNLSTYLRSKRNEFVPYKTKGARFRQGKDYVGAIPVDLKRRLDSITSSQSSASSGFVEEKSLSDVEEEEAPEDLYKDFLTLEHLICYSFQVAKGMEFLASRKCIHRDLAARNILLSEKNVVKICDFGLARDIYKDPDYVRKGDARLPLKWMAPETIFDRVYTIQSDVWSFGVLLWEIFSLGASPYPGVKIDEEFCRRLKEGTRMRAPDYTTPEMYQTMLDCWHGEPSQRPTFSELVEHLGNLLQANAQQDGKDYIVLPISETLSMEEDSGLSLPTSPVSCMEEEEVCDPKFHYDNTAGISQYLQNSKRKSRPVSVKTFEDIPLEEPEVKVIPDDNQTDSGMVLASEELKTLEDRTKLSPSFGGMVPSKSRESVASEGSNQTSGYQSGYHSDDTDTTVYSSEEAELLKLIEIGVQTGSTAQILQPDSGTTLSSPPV
Chain of Pyruvate kinase PKM (P14618 whole entry): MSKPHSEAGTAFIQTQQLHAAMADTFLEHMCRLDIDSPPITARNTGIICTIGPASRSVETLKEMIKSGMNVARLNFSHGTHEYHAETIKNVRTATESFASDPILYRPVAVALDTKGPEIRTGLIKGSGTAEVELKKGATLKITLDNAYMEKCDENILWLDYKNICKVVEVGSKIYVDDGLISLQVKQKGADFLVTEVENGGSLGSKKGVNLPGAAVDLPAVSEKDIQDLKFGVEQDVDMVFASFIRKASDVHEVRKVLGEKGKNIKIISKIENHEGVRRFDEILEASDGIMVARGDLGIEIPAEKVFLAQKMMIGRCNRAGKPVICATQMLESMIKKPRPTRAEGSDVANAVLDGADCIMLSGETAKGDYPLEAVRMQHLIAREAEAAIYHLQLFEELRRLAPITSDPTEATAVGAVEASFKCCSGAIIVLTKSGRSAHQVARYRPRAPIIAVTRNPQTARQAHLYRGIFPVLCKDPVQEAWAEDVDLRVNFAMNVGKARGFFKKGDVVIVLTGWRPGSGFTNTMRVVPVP

For the compound `O=S(=O)(c1ccc2c(c1)OCCO2)N1CCN(S(=O)(=O)c2c(F)cccc2F)CC1`, the EC50 on Pyruvate kinase PKM is 0.241 µM.

In data set [1], `COc1ccc(OC)c(C(=O)/C=C/c2ccc3nccnc3c2)c1` showed an IC50 of 7.81 µM.

Take `Clc1cc2ncc(-c3cnc4ncccn34)nc2cc1Cl`: the IC50 in the data set on CAL-27 [2] was 25.3 µM. Besides, inhibition in data set [3] was half-maximal at 15.8 µM (IC50 at 24 h).

The compound `O=C(c1ccccc1)c1ccc2ncc(-c3cnc4ccccn34)nc2c1` came in with an IC50 in the data set with CAL-27 [2] of 14.6 µM. In addition, the IC50 at 24 h in data set [3] came out at 24.9 µM.

In the data set with CAL-27 [2], `c1ccc2nc(-c3cnc4ccccn34)cnc2c1` had an IC50 above 100 µM.

`FC(F)(F)c1ccc(-c2ccn3c(-c4cnc5ccccc5n4)cnc3n2)cc1`: in the data set with CAL-27 [2], the IC50 was above 100 µM.

As for `Cc1ccc(-c2ccn3c(-c4cnc5ccccc5n4)cnc3n2)cc1`, the midpoint of inhibition with CAL-27 [2], the IC50, lay at 64.8 µM.

With `c1ccc2nc(-c3cnc4ncccn34)cnc2c1`, the IC50 in the data set with CAL-27 [2] is above 100 µM.

For the compound `CS(=O)(=O)c1ccc(-c2ccn3c(-c4cnc5ccccc5n4)cnc3n2)cc1`, in the data set on CAL-27 [2], the IC50 was above 100 µM.

In turn, `Brc1ccc2ncc(-c3cnc4ncccn34)nc2c1` had an IC50 in the data set on CAL-27 [2] of 21.6 µM. This compound had an IC50 at 24 h in data set [3] of 15.2 µM.

`Clc1ccc(-c2ccn3c(-c4cnc5ccccc5n4)cnc3n2)cc1`: the Activity in the data set on CAL-27 [4] was 79.07%.

In the data set on CAL-27 [2], `Clc1ccc2ncc(-c3cnc4ncccn34)nc2c1` displayed an IC50 above 100 µM.

Compound `Clc1ccc2ncc(-c3cnc4ccccn34)nc2c1` displayed an IC50 with CAL-27 [2] of 12.8 µM. Besides, the IC50 at 24 h in data set [3] came to 19.2 µM.

In the case of `Cc1nc2ccccc2n(CC(=O)Nc2ccc(C(=O)Nc3cccc(Cl)c3)cc2)c1=O`, it took 0.0027 µM to reach half-maximal inhibition in data set [5] (IC50).

`Clc1ccccc1-c1ccn2c(-c3cnc4ccccc4n3)cnc2n1` returned an IC50 in the data set on CAL-27 [2] of 13.7 µM. In addition, the concentration for half-maximal inhibition (IC50) at 24 h in data set [3] was found to be 133 µM.

Regarding `O=C(c1ccccc1)c1ccc2ncc(-c3cnc4ncccn34)nc2c1`, it took 17 µM to reach half-maximal inhibition in the data set on CAL-27 [2] (IC50). The compound also came in with an IC50 at 24 h in data set [3] of 16.7 µM.

For `Cc1ccc2ncc(-c3cnc4ccccn34)nc2c1`, half-maximal inhibition with CAL-27 [2] (IC50) was put at 18.5 µM. The compound further yielded an IC50 at 24 h in data set [3] of 22.5 µM.

The compound `O=[N+]([O-])c1ccc2ncc(-c3cnc4ccccn34)nc2c1` returned an IC50 with CAL-27 [2] of 27.2 µM. In data set [3], this compound registered an IC50 at 24 h of 20.8 µM.

With `c1ccc(-c2ccn3c(-c4cnc5ccccc5n4)cnc3n2)cc1`, the IC50 in the data set on CAL-27 [2] was 10.3 µM. Further, the IC50 at 24 h in data set [3] came to 47.5 µM.

The compound `Fc1ccc(-c2ccn3c(-c4cnc5ccccc5n4)cnc3n2)cc1` returned an IC50 in the data set with CAL-27 [2] above 100 µM.

On to `Fc1ccccc1-c1ccn2c(-c3cnc4ccccc4n3)cnc2n1`, for which the IC50 with CAL-27 [2] is above 100 µM.

For `Fc1ccc2ncc(-c3cnc4ncccn34)nc2c1`, the IC50 in the data set on CAL-27 [2] is above 100 µM.

In the case of `Clc1ccc(-c2ccn3c(-c4cnc5ccccc5n4)cnc3n2)c(Cl)c1`, in the data set on CAL-27 [2], the half-maximal inhibitory concentration (IC50) is above 100 µM.

Compound `Fc1ccc2ncc(-c3cnc4ccccn34)nc2c1` displayed an IC50 in the data set with CAL-27 [2] above 100 µM.

In turn, `Clc1cc2ncc(-c3cnc4ccccn34)nc2cc1Cl` registered an IC50 in the data set with CAL-27 [2] of 15.1 µM. In data set [3], this compound returned an IC50 at 24 h of 23.9 µM.

Compound `Brc1ccc2ncc(-c3cnc4ccccn34)nc2c1` registered an IC50 in the data set on CAL-27 [2] of 16 µM. Moreover, in data set [3], half-maximal inhibition (IC50 at 24 h) required 20.9 µM.

As to `O=[N+]([O-])c1ccc2ncc(-c3cnc4ncccn34)nc2c1`, the midpoint of inhibition in the data set with CAL-27 [2], the IC50, lay at 19.7 µM. This compound also gave an IC50 at 24 h in data set [3] of 18.3 µM.

`Cc1ccc2ncc(-c3cnc4n3C=C=C=N4)nc2c1`: the IC50 in the data set with CAL-27 [2] was above 100 µM.
